This passage reports inhibition and IC50 results from ChEMBL document CHEMBL1138451, “Significance of interactions of BACE1-Arg235 with its ligands and design of BACE1 inhibitors with P2 pyridine scaffold” (Bioorg Med Chem Lett, 2009).

The target in assay [1] is T1, Beta-secretase 1 (Homo sapiens, UniProt P56817). The experiment in a line: Inhibition of human recombinant Arg235 region of BACE1 at 0.2 uM by FRET assay.
The target in assay [2] is T1, Beta-secretase 1. The experiment in a line: Inhibition of human recombinant Arg235 region of BACE1 at 2 uM by FRET assay.
Assay [3] has as its target T1, Beta-secretase 1. The experiment in a line: Inhibition of human recombinant Arg235 region of BACE1 by FRET assay.

T1 sequence (P56817 whole entry): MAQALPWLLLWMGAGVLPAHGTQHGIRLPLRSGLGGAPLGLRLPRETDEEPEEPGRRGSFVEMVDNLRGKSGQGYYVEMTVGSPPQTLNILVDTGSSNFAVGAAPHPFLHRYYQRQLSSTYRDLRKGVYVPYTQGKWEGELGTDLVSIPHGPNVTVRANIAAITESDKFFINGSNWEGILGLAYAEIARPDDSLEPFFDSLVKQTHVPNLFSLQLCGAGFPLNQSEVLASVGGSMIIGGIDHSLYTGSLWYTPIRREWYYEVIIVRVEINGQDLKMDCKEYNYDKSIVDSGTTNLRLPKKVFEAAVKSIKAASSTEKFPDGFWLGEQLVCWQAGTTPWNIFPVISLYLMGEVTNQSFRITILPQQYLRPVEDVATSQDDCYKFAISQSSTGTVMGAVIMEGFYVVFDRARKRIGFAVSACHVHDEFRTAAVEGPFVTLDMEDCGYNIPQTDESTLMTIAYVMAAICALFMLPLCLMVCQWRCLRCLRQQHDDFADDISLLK

With `O=C(N[C@@H](Cc1ccccc1)[C@H](O)C(=O)Nc1cccc(-c2nn[nH]n2)c1)c1cc(I)cc(C(=O)N2COC[C@@H]2c2ccc(F)cc2)n1`, the inhibition (in general, the share of the control response that was lost under treatment) turned out to be 92% at Beta-secretase 1 [1] and 99% on Beta-secretase 1 [2].

On to `O=C(N[C@@H](Cc1ccccc1)[C@H](O)C(=O)Nc1cccc(-c2nnn[nH]2)c1)c1cc(I)cc(C(=O)N2COC[C@@H]2c2ccc(F)cc2)n1`, for which, at Beta-secretase 1 [3], the IC50 (usually the concentration that inhibits the measured activity by half) was determined as 10 nM.

On to `O=C(N[C@@H](Cc1ccccc1)[C@H](O)C(=O)Nc1cccc(-c2nn[nH]n2)c1)c1cc(Br)cc(C(=O)N2COC[C@@H]2c2ccccc2)n1`, for which the figures for the inhibition on Beta-secretase 1 [1] and on Beta-secretase 1 [2] were 88% and 99%, respectively.

`O=C(N[C@@H](Cc1ccccc1)[C@H](O)C(=O)Nc1cccc(-c2nn[nH]n2)c1)c1cccc(C(=O)N2COC[C@@H]2c2ccccc2)n1`: the inhibition at Beta-secretase 1 [2] was determined as 89%.

As to `O=C(N[C@@H](Cc1ccccc1)[C@H](O)C(=O)Nc1cccc(-c2nn[nH]n2)c1)c1cc(Cl)cc(C(=O)N2COC[C@@H]2c2ccc(F)cc2)n1`, the IC50 on Beta-secretase 1 [3] is 13 nM. Moreover, the inhibition on Beta-secretase 1 [1] came to 91%; on Beta-secretase 1 [2], 99%.

Consider `O=C(N[C@@H](Cc1ccccc1)[C@H](O)C(=O)Nc1cccc(-c2nn[nH]n2)c1)c1cc(Br)cc(C(=O)N2COC[C@@H]2c2ccc(F)cc2)n1`, for which the inhibition at Beta-secretase 1 [1] was determined as 93%; at Beta-secretase 1 [2] it was 99%.

For `O=C(N[C@@H](Cc1ccccc1)[C@H](O)C(=O)Nc1cccc(-c2nn[nH]n2)c1)c1cc(Cl)cc(C(=O)N2COC[C@@H]2c2ccccc2)n1`, the inhibition at Beta-secretase 1 [1] stood at 87%; on Beta-secretase 1 [2], 98%.

On to `O=C(N[C@@H](Cc1ccccc1)[C@H](O)C(=O)Nc1cccc(-c2nnn[nH]2)c1)c1cc(Br)cc(C(=O)N2COC[C@@H]2c2ccc(F)cc2)n1`, for which, at Beta-secretase 1 [3], the IC50 amounted to 9 nM.

For `O=C(N[C@@H](Cc1ccccc1)[C@H](O)C(=O)Nc1cccc(-c2nn[nH]n2)c1)c1cc(I)cc(C(=O)N2COC[C@@H]2c2ccccc2)n1`, on Beta-secretase 1 [3], the IC50 amounted to 24 nM. Moreover, the results for the inhibition at Beta-secretase 1 [1] and on Beta-secretase 1 [2] were 86% and 99%, respectively.

For the compound `O=C(N[C@@H](Cc1ccccc1)[C@H](O)C(=O)Nc1cccc(-c2nnn[nH]2)c1)c1cc(Cl)cc(C(=O)N2COC[C@@H]2c2ccccc2)n1`, the IC50 on Beta-secretase 1 [3] is 22 nM.

For `O=C(N[C@@H](Cc1ccccc1)[C@H](O)C(=O)Nc1cccc(-c2nnn[nH]2)c1)c1cc(Br)cc(C(=O)N2COC[C@@H]2c2ccccc2)n1`, at Beta-secretase 1 [3], the IC50 amounted to 15 nM.
